# How the values were obtained:
# Type in all cases: biochemical
# [1] = target: T1, human MTH1 (hMTH1, NUDT1) (Homo sapiens, UniProt P36639); assay: Michaelis-Menten kinetics of hydrolysis by purified MTH1 (PPiLight)
# [2] = target: T2, mouse MTH1 (mmMTH1, mmNUDT1) (Mus musculus, UniProt P53368); assay: hydrolysis by […] purified enzyme, PPiLight assay, […] substrate
# T2 construct: gene Nudt1
# [3] = target: Arabidopsis thaliana NUDT1 (atNUDT1, atNUDX1) (Arabidopsis thaliana, UniProt Q9CA40); assay: as above
# [4] = target: T3, rat MTH1 (rnMTH1, rnNUDT1) (Rattus norvegicus, UniProt P53369); assay: as above
# T3 construct: gene Nudt1
# [5] = target: T1, human MTH1 (hMTH1, NUDT1); assay: Michaelis-Menten kinetics of hydrolysis by purified MTH1 (PPiLight); HPLC and LC-MS of product
# zebrafish MTH1 (zfMTH1) = target: T4, zebrafish MTH1 (zfMTH1) (Danio rerio, UniProt Q7ZWC3); assay: hydrolysis by purified zfMTH1, malachite green and PPiLight assays
# T4 construct: gene nudt1
# T4 sequence (Q7ZWC3 whole entry): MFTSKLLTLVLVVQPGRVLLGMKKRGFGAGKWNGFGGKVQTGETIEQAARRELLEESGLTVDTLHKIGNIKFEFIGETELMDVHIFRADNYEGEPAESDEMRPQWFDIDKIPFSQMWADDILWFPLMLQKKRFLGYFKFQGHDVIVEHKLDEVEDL
# Chain of Arabidopsis thaliana NUDT1 (atNUDT1, atNUDX1) (Q9CA40 2-147): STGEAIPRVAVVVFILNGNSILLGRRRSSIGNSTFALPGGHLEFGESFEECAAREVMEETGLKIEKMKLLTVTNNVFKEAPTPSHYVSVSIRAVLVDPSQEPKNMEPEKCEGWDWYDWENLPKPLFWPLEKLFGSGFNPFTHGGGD
SMILES,Km [1] [µM],"hydrolysis by 1.5 nM purified enzyme, PPiLight assay, 75 μM substrate [2]","hydrolysis by 1.5 nM purified enzyme, PPiLight assay, 75 μM substrate [3]","hydrolysis by 1.5 nM purified enzyme, PPiLight assay, 75 μM substrate [4]",Km [5] [µM],"hydrolysis by purified zfMTH1, malachite green and PPiLight assays (zebrafish MTH1 (zfMTH1))"
COc1nc(N)nc2c1ncn2[C@@H]1O[C@H](COP(=O)(O)OP(=O)(O)OP(=O)(O)O)[C@@H](O)[C@H]1O [O6-methyl-GTP],236 ± 44,,,,,
COc1nc(N)nc2c1ncn2[C@H]1C[C@H](O)[C@@H](COP(=O)(O)OP(=O)(O)OP(=O)(O)O)O1 [O6-methyl-dGTP],,MTH1 homologues from all tested species but E. coli were found to catalyze the hydrolysis of O6-methyl-dGTP,MTH1 homologues from all tested species but E. coli were found to catalyze the hydrolysis of O6-methyl-dGTP,MTH1 homologues from all tested species but E. coli were found to catalyze the hydrolysis of O6-methyl-dGTP,15.6 ± 0.2,The zfMTH1 enzyme displays considerable activity with O6-methyl-dGTP with a clear preference over dGTP
